Data published in US20090156646A1, “PYRIDYLPHENOL COMPOUND AND USE THEREOF” (TAKEDA PHARMACEUTICAL COMPANY LIMITED, priority 2005, published 2009).
Counter-ions that a name gives are not always drawn.

Assays:
[1] = target: T1, human metastin receptor hOT7T175 (Homo sapiens, UniProt Q969F8, L364H); experiment: binding inhibiting activity: 125I-metastin (40-54) binding to cell membrane fraction of h175 KB34 cells; conditions: room temperature 60 minutes, read-out: binding inhibiting activity, represented by the IC50 value
T1 construct: encoding the entire length of human metastin receptor hOT7T175; expressed in transfected cells; host or cells: CHO/dhFr- cells (ATCC #CRL-9096) stably transfected with pAKKO-hOT7T175; clone h175-16 was used as whole cells for FLIPR
Experimental: cDNA fragments (SEQ ID NO: 2) encoding the entire length of human metastin receptor hOT7T175 were incorporated into expression vector pAKKO1.11H to produce animal cell expression plasmids pAKKO-hOT7T175. CHO/dhFr-cells (ATCC, #CRL-9096) were seeded onto 6 cm culture dishes (Becton Dickinson) at a density of 0.3×10^6 cells/dish, and cultured in the conditions of 48 hours, 37° C. and 5% CO2. 5 μg pAKKO-hOT7T175 plasmid DNA was transfected to the resultant cells by a known method (described in Example 3 of WO 00/24890) using the Cellphect Transfection Kit (Amersham, #27-9268-01). The DNA-transfected cells were cultured in the Dulbecco's modified Eagle medium (DMEM) (Sigma, #D6046) containing 10% dialyzed FBS (Biowest, #S180D), 1× Non-Essential Amino Acid (Invitrogen, #11140-050) and 50 μg/ml Gentamycin (Invitrogen, #15750-060; and cell strains stably expressing the plasmid genes were selected. The obtained 41 clones were treated with the FLIPR assay (in accordance with the method described in Example 3 of WO 00/24890), and the reactivity to the human metastin […] (Nos. 40 to 54 of the human metastin sequence; Peptide Institute, Inc., #4389-v) was evaluated. In the end, h175 KB34 cell strains were selected. By substantially the same method, h175-16 cell strains were also produced.
The h175 KB34 cells were cultured to be on the stage of 40-50% confluency using a cell factory (Nunc, #164327), and then cells were recovered in the following method.
First, the medium was disposed, and the cells were washed twice with 200 ml EDTA/PBS(−). Another 200 ml of EDTA/PBS(−) was added, and the cells were kept still for 20 minutes at room temperature until being peeled off. The cells were recovered into four 50 ml tubes (Becton Dickinson, #352070), and centrifuged (2,000 rpm, 10 min., 4° C.) by a reduced performance centrifuge (TOMY, RL-101). The supernatant was disposed, and the pellets in the four tubes were each suspended with 10 ml EDTA/PBS(−) and collected into one tube (Becton Dickinson, #352070). The pellet was further centrifuged (2,000 rpm, 10 min., 4° C.). The resultant pellet was suspended with 20 ml ice-cooled homogenizer buffer [10 mM NaHCO3, 2 mM EGTA, 0.2 mM magnesium acetate, 10 μg/ml Leupeptin (Peptide Institute, Inc., #4041), 10 μg/ml E-64 (Peptide Institute, Inc., # 4096), 100 μg/ml o-phenanthroline (Dojindo Laboratories), 90 μg/ml PMSF (Wako Pure Chemical Industries, Ltd.), 10 μg/ml Pepstatin A (Peptide Institute, Inc., #4397), pH7.3]. The cell suspension was homogenized 3 times, each for 30 seconds, using a Polytron homogenizer. The resultant homogenate was centrifuged (2,500 rpm, 10 min, 4° C.) using a high performance refrigerated centrifuge (Hitachi, Ltd., CR26H). The supernatant was recovered into a super-centrifuge tube, and super-centrifuged (30,000 rpm, 60 min, 4° C.) using a super-centrifuge (Hitachi, Ltd., SCP70H). 3 ml homogenizer buffer was added to the resultant pellet, and the pellet was suspended by pipetting. 3 ml glycerol (Wako Pure Chemical Industries, Ltd.) was added to the resultant suspension and diluted 2-folds. The resultant substance was used as a cell membrane fraction of the h175 KB34 cells. Each […] of the membrane fraction was put into a 1.5 ml tube (Eppendorf, #0030120.086), stored in a freezer (−30 C) so as not to be frozen, and used for a binding assay.
An assay buffer was prepared on the day of the test by adding, to each 100 ml of an assay basic buffer [20 mM Tris, 2.5 mM Magnesium Acetate, 2 mM EGTA, pH 7.4], 1 mg Leupeptin (Peptide Institute, Inc., 4041), 1 mg E-64 (Peptide Institute, Inc., 4096), 10 mg o-phenanthroline (Dojindo Laboratories), 9 mg PMSF (Wako Pure Chemical Industries, Ltd.) and 1 mg Pepstatin A (Peptide Institute, Inc., 4397). The prepared assay buffer was stored at 4° C. until being used. When the measurement was to be performed with no BSA, the above-described assay buffer was used. […]

T1 sequence (Q969F8 whole entry L364H): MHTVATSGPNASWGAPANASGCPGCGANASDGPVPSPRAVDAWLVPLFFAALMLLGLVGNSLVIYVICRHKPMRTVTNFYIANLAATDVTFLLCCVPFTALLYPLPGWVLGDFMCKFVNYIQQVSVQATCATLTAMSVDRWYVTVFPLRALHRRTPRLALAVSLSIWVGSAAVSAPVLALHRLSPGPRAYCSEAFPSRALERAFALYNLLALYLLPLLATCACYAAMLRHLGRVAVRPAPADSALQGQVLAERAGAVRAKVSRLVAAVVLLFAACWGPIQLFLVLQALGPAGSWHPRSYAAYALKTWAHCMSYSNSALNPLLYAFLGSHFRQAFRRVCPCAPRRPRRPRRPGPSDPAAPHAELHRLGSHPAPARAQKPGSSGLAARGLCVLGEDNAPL

| SMILES | IC50 [1] | melting point |
| --- | --- | --- |
| CCCC(CC(=O)Nc1cccc(-c2cc(-c3ccc(F)cc3O)nc(NC(=O)c3ccco3)c2C#N)c1)N(CC)CC (stereo not drawn) [Example 317, N-[3-cyano-4-(3-{[3-(diethylamino)hexanoyl]amino}phenyl)-6-(4-fluoro-2-hydroxyphenyl)pyridin-2-yl]-2-furamide hydrochloride] | ≤ 10 µM | – |
| N#Cc1c(-c2cccc(NC(=O)CCN)c2)cc(-c2ccccc2O)nc1NC(=O)c1ccccc1 [Example 31, N-[4-(3-(β-alanylamino)phenyl)-3-cyano-6-(2-hydroxyphenyl)pyridin-2-yl]benzamide trifluoroacetate] | ≤ 10 µM | – |
| N#Cc1c(-c2cccc(NC(=O)C[C@H]3CCCN3)c2)cc(-c2ccc(F)cc2O)nc1NC(=O)c1ccco1 [Example 314, N-[3-cyano-6-(4-fluoro-2-hydroxyphenyl)-4-(3-{[(2R)-pyrrolidin-2-ylacetyl]amino}phenyl)pyridin-2-yl]-2-furamide hydrochloride] | ≤ 10 µM | – |
| N#Cc1c(-c2cc(NC(=O)CCN)ccc2Cl)cc(-c2ccccc2O)nc1NC(=O)c1cccs1 [Example 42, N-{4-[5-(β-alanylamino)-2-chlorophenyl]-3-cyano-6-(2-hydroxyphenyl)pyridin-2-yl}thiophene-2-carboxamide dihydrochloride] | ≤ 10 µM | – |
| CCN(CC)CCN(CC)c1cccc(-c2cc(-c3ccc(F)cc3O)nc(NC(=O)c3ccco3)c2C#N)c1 [Example 304, N-[3-cyano-4-{3-[[2-(diethylamino)ethyl] (ethyl)amino]phenyl}-6-(4-fluoro-2-hydroxyphenyl)pyridin-2-yl]-2-furamide dihydrochloride] | ≤ 10 µM | – |
| N#Cc1c(-c2ccnc(C(=O)NCCN)c2)cc(-c2ccccc2O)nc1NC(=O)c1ccco1 [Example 272, N-(2-aminoethyl)-3′-cyano-2′-(2-furoylamino)-6′-(2-hydroxyphenyl)-4,4′-bipyridine-2-carboxamide dihydrochloride] | ≤ 10 µM | – |
| CC(C)(C)OC(=O)c1c(-c2cccc(NC(=O)CCN)c2)cc(-c2ccccc2O)nc1NC(=O)c1ccccc1 [Example 82, tert-butyl 4-[3-(β-alanylamino)phenyl]-2-(benzoylamino)-6-(2-hydroxyphenyl) nicotinate] | – | 247 to 249 °C |
| N#Cc1c(-c2cccc(N)c2)cc(-c2ccccc2O)nc1NC(=O)c1ccc(Cl)s1 [Example 32, N-[4-(3-aminophenyl)-3-cyano-6-(2-hydroxyphenyl)pyridin-2-yl]-5-chlorothiophene-2-carboxamide] | – | 259 to 260 °C |
| CN1CCN(Cc2cccc(-c3cc(-c4ccc(F)cc4O)nc(NC(=O)c4ccco4)c3C#N)c2)CC1 (as salt: hydrochloride) [Example 333, N-(3-cyano-6-(4-fluoro-2-hydroxyphenyl)-4-{3-[(4-methylpiperazin-1-yl)methyl]phenyl}pyridin-2-yl)-2-furamide dihydrochloride] | – | 205 to 210 °C |
| Cl.N#Cc1c(-c2ccc(F)c(N)c2)cc(-c2ccc(F)cc2O)nc1NC(=O)c1ccco1 | – | 284 to 285 °C |
| COc1ccc(O)c(-c2cc(-c3cccc(NC(=O)CCN)c3)c(C#N)c(NC(=O)c3cccs3)n2)c1.Cl | – | 197 to 201 °C |
| Cl.N#Cc1c(-c2cccc(C(=O)NC3CCCNC3)c2)cc(-c2ccccc2O)nc1NC(=O)c1cc2ccccc2s1 (stereo not drawn) | – | 225 to 229 °C |
| Cl.N#Cc1c(-c2ccc(C(=O)NCCN)cc2)cc(-c2ccccc2O)nc1NC(=O)c1cccs1 | – | 202 to 208 °C |
| N#Cc1c(-c2cccc(NC(=O)CCN)c2)cc(-c2cc(Cl)ccc2O)nc1NC(=O)c1ccccc1 (as salt: trifluoroacetate) [Example 47, N-{4-[3-(β-alanylamino)phenyl]-6-(5-chloro-2-hydroxyphenyl)-3-cyanopyridin-2-yl}benzamide trifluoroacetate] | – | 205 to 210 °C |
| COc1ccc(-c2cc(-c3cccc(NC(=O)CCN)c3)c(C#N)c(NC(=O)c3ccccc3)n2)c(O)c1 (as salt: trifluoroacetate) [Example 50, N-{4-[3-(β-alanylamino)phenyl]-3-cyano-6-(2-hydroxy-4-methoxyphenyl)pyridin-2-yl}benzamide trifluoroacetate] | – | 164 to 170 °C |
| COc1cccc(O)c1-c1cc(-c2cccc(NC(=O)CCN)c2)c(C#N)c(NC(=O)c2ccccc2)n1 (as salt: trifluoroacetate) [Example 52, N-{4-[3-(β-alanylamino)phenyl]-3-cyano-6-(2-hydroxy-6-methoxyphenyl)pyridin-2-yl}benzamide trifluoroacetate] | – | 160 to 167 °C |
| CNc1cccc(-c2cc(-c3ccccc3O)nc(NC(=O)c3cccs3)c2C#N)c1 [Example 39, N-{3-cyano-6-(2-hydroxyphenyl)-4-[3-(methylamino)phenyl]pyridin-2-yl}thiophene-2-carboxamide] | – | 227 to 230 °C |
| CCCNC(=O)c1cccc(-c2cc(-c3ccccc3O)nc(NC(=O)c3cccs3)c2C#N)c1 [Example 34, N-(3-cyano-6-(2-hydroxyphenyl)-4-{3-[(propylamino)carbonyl]phenyl}pyridin-2-yl)thiophene-2-carboxamide] | – | 245 to 246 °C |
| N#Cc1c(-c2cccc(NC(=O)[C@@H](N)CN)c2)cc(-c2ccc(F)cc2O)nc1NC(=O)c1ccco1 (as salt: hydrochloride) [Example 302, N-[4-{3-[(3-amino-L-alanyl)amino]phenyl}-3-cyano-6-(4-fluoro-2-hydroxyphenyl)pyridin-2-yl]-2-furamide dihydrochloride] | – | 231 to 240 °C |
| CCOc1ccccc1C(=O)Nc1nc(-c2ccc(Cl)cc2O)cc(-c2cccc(NC(=O)CCN)c2)c1C#N.Cl | – | 240 to 244 °C |
| N#Cc1c(-c2cccc(N)c2)cc(-c2ccccc2O)nc1NC(=O)C1CCCCC1 [Example 29, N-[4-(3-aminophenyl)-3-cyano-6-(2-hydroxyphenyl)pyridin-2-yl]cyclohexanecarboxamide] | – | 236 to 238 °C |
| N#Cc1c(-c2cccc(NC(=O)CCN)c2)cc(-c2ccccc2O)nc1NC(=O)c1ccccc1 (as salt: trifluoroacetate) [Example 31, N-[4-(3-(β-alanylamino)phenyl)-3-cyano-6-(2-hydroxyphenyl)pyridin-2-yl]benzamide trifluoroacetate] | – | 225 to 226 °C |
| N#Cc1c(-c2cccc(NC(=O)[C@@H](N)Cc3cnc[nH]3)c2)cc(-c2ccc(Cl)cc2O)nc1NC(=O)c1ccco1 (as salt: hydrochloride) [Example 243, N-{3-[6-(4-chloro-2-hydroxyphenyl)-3-cyano-2-(2-furoylamino)pyridin-4-yl]phenyl}-L-histidinamide dihydrochloride] | – | 206 to 214 °C |
| N#Cc1c(-c2ccc(N)cc2)cc(-c2ccccc2O)nc1NC(=O)c1cccs1 [Example 48, N-[4-(4-aminophenyl)-3-cyano-6-(2-hydroxyphenyl)pyridin-2-yl]thiophene-2-carboxamide] | – | 292 to 293 °C |
